In patent publication US4340539A, “Derivatives of 6-bromo penicillanic acid” (priority 1980, dated 1982):
In brackets after ≈: the same amount, converted by molar mass. Structures can show the parent of a compound that is named as a salt. Where two headings read alike, the source gives them in different places.

Assays:
[1] = system: B. fragilis; assay: Anti-Bacteroides activity (MIC, agar dilution), alone and in combination with BL-P2013; assay type: cell-based
[2] = system: S. aureus A-9606; assay: Therapeutic efficacy in mice experimentally infected with a beta-lactamase strain of Staphylococcus aureus (Table 3); assay type: in vivo; conditions: for ED50: Staphylococcus aureus, A9606, challenge 5 × 10^8, read-out: PD50/Treatment
Experimental: Treatment schedule: Drugs administered 0 and 2 hours postinfection.

[3] = system: β-lactamase producing strains of S. aureus; assay: Therapeutic efficacy of amoxicillin in combinations with BL-P2024 in infected mice (Table 7); assay type: in vivo; conditions: Staphylococcus aureus, po, read-out: PD50/Treatment
[4] = system: β-lactamase producing strains of E. coli; assay: as above; assay type: in vivo; conditions: oral
[5] = system: B. thetaiotaomicron; assay: Anti-Bacteroides activity (MIC, agar dilution), alone and in combination with BL-P2013; assay type: cell-based
Experimental: *Minimum inhibitory concentration (MIC) determined by the agar dilution
method using 50X dilutions of 24 hour cultures as inocula dispensed by th
Steer's inoculator. Assay medium composed of Brucella Agar plus 5% laked
sheep blood and 10 mcg/ml vitamin K.

[6] = system: Bacteroides species; assay: as above; assay type: cell-based
[7] = system: β-lactamase producing strains of E. coli; assay: animal or person; assay type: in vivo, mice; conditions: Escherichia coli, in Mus musculus, po
Experimental: (§1) Drugs were administered orally at 0 and 2 hours postinfection.
(§2) Drugs were suspended in TCMC.

[8] = system: β-lactamase producing strains of S. aureus; assay: animal or person; assay type: in vivo, mice; conditions: Staphylococcus aureus, in Mus musculus, po
Experimental: as §1, §2

[9] = system: E. cloacae; assay: Antibacterial activity (MIC); assay type: cell-based; conditions: Enterobacter cloacae, strain A-9659
[10] = system: S. marcescens; assay: Antibacterial activity (MIC); assay type: cell-based; conditions: Serratia marcescens; strain A20019
[11] = system: S. aureus; assay: Antibacterial activity (MIC); assay type: cell-based; conditions: Staphylococcus aureus
[12] = system: P. rettgeri; assay: Antibacterial activity (MIC); assay type: cell-based; conditions: Providencia rettgeri; strain A21203
[13] = system: S. faecalis; assay: Antibacterial activity (MIC); assay type: cell-based; conditions: Enterococcus faecalis; strain A20688
[14] = system: S. pneumoniae; assay: Antibacterial activity (MIC); assay type: cell-based; conditions: Streptococcus pneumoniae; strain A-9585
[15] = system: S. pyogenes; assay: Antibacterial activity (MIC); assay type: cell-based; conditions: Streptococcus pyogenes; strain A-9604
[16] = system: E. coli; assay: Antibacterial activity (MIC); assay type: cell-based; conditions: Escherichia coli, strain A15119
[17] = system: P. mirabilis; assay: Antibacterial activity (MIC); assay type: cell-based; conditions: Proteus mirabilis; strain A-9900
[18] = in vivo; parameters: species or system mice; conditions: mouse, blood, po, 100 mg/kg, Test 3, oral 100 mg/kg, 30 min; read-out: Blood level
Source text: Compounds prepared in 5% Propylene Glycol & TweenCMC-H2 O.
Values in parentheses are 95% confidence limits.
Assay Organism: E. coli A9675 (pH = 6.6, 0.1% inoculum)

[19] = man, cited from earlier work
[20] = Hygroscopicity; assay type: physicochemical
[21] = strain A21875, β-lactamase +, read-out: MIC
[22] = strain A21916, β-lactamase +, read-out: MIC
[23] = strain A22021, β-lactamase +, read-out: MIC
[24] = strain A22053, β-lactamase +, read-out: MIC
[25] = strain A22697, β-lactamase +, read-out: MIC
[26] = strain A22793, β-lactamase +, read-out: MIC
[27] = strain A22794, β-lactamase +, read-out: MIC
[28] = strain A22798, β-lactamase +, read-out: MIC
[29] = Bacteroides thetaiotaomicron, strain A22277, β-lactamase +, read-out: MIC
[30] = Bacteroides, strain A20927-1, β-lactamase -, read-out: MIC
[31] = Bacteroides, strain A20933, β-lactamase +, read-out: MIC
[32] = Bacteroides, strain A20934, β-lactamase +, read-out: MIC
[33] = Bacteroides, strain A20935, β-lactamase -, read-out: MIC

Compound: CC1(C)S[C@@H]2[C@H](NC(=O)[C@H](N)c3ccc(O)cc3)C(=O)N2[C@H]1C(=O)O [Amoxicillin]
- MIC [1, 21]: 8 µg/mL
- MIC [1, 22]: 8 µg/mL
- MIC [1, 23]: 4 µg/mL
- MIC [1, 24]: 8 µg/mL
- MIC ([1]; strain A22533, β-lactamase +): > 125 µg/mL
- MIC ([1]; strain A22534, β-lactamase +): > 125 µg/mL
- MIC ([1]; strain A22535, β-lactamase +): > 125 µg/mL
- MIC ([1]; strain A22693, β-lactamase +): 16 µg/mL
- MIC ([1]; strain A22694, β-lactamase +): 16 µg/mL
- MIC ([1]; strain A22695, β-lactamase +): 125 µg/mL
- MIC ([1]; strain A22696, β-lactamase +): > 125 µg/mL
- MIC [1, 25]: 8 µg/mL
- MIC ([1]; strain A22792, β-lactamase +): 125 µg/mL
- MIC [1, 26]: 8 µg/mL
- MIC [1, 27]: 8 µg/mL
- MIC ([1]; strain A22795, β-lactamase +): 16 µg/mL
- MIC ([1]; strain A22797, β-lactamase +): 16 µg/mL
- MIC [1, 28]: 8 µg/mL
- PD50/Treatment ([2]; IM, challenge 7 × 10^8): > 800 mg/kg
- ED50 ([2]; IM): > 800 mg/kg
- ED50 ([2]; PO): > 800 mg/kg
- ED50 [3]: > 800 mg/kg
- PD50/Treatment ([4]; E. coli A9675, challenge 6 × 10^5, vehicle TCMC): > 400 mg/kg
- PD50/Treatment ([4]; E. coli A9675, challenge 7 × 10^5, vehicle 50% DMSO): > 100 mg/kg
- PD50/Treatment ([4]; E. coli A9675, challenge 7 × 10^5, vehicle TCMC): > 100 mg/kg
- PD50/Treatment ([4]; E. coli A9675, challenge 9 × 10^5, vehicle 50% DMSO): > 100 mg/kg
- MIC [5, 29]: 16 µg/mL
- MIC ([5]; strain A22279, β-lactamase +): 16 µg/mL
- MIC ([6]; Bacteroides): 16 µg/mL
- MIC [6, 30]: 0.13 µg/mL
- MIC ([6]; Bacteroides, strain A20930, β-lactamase +, read-out: MIC): 32 µg/mL
- MIC [6, 31]: 8 µg/mL
- MIC [6, 32]: 8 µg/mL
- MIC [6, 33]: 0.13 µg/mL
- MIC ([6]; strain A20929, β-lactamase +): 16 µg/mL
- MIC ([6]; strain A20931, β-lactamase +): 16 µg/mL
- MIC ([6]; strain A21954, β-lactamase +): 16 µg/mL
- ED50 ([7]; read-out: PD50/Treatment, oral, E. coli A9675, challenge 6 × 10^5): > 400 mg/kg
- ED50 ([7]; read-out: PD50/Treatment, oral, E. coli A9675, challenge 7 × 10^5): > 100 mg/kg
- ED50 ([7]; read-out: PD50/Treatment, oral, E. coli A9675, challenge 8 × 10^5): > 200 mg/kg
- ED50 ([7]; read-out: PD50/Treatment, oral, E. coli A20649, challenge 5 × 10^5): > 200 mg/kg
- ED50 ([7]; read-out: PD50/Treatment, oral, E. coli A20649, challenge 6 × 10^5): > 200 mg/kg
- ED50 ([7]; read-out: PD50/Treatment, oral, E. coli A21223, challenge 6 × 10^5): > 200 mg/kg
- ED50 ([7]; read-out: PD50/Treatment, oral, E. coli A21223, challenge 7 × 10^5 (first line)): > 200 mg/kg
- ED50 ([7]; read-out: PD50/Treatment, oral, E. coli A21223, challenge 7 × 10^5 (third line)): > 200 mg/kg
- ED50 ([8]; read-out: PD50/Treatment, oral, S. aureus A9606, challenge 2 × 10^9): > 800 mg/kg
- ED50 ([8]; read-out: PD50/Treatment, oral, S. aureus A9606, challenge 7 × 10^8): > 200 mg/kg
- ED50 ([8]; read-out: PD50/Treatment, oral, S. aureus A15091, challenge 4 × 10^8): > 200 mg/kg
- ED50 ([8]; read-out: PD50/Treatment, oral, S. aureus A15091, challenge 5 × 10^8): > 800 mg/kg
- ED50 ([8]; read-out: PD50/Treatment, oral, S. aureus A20379, challenge 5 × 10^8): > 200 mg/kg
- ED50 ([8]; read-out: PD50/Treatment, oral, S. aureus A20379, challenge 6 × 10^8): > 200 mg/kg

Compound: CC1(C)S[C@@H]2[C@H](NC(=O)[C@H](N)c3ccccc3)C(=O)N2[C@H]1C(=O)O [Ampicillin, reference compound]
- MIC [9]: 63 µg/mL (≈ 180 µM)
- MIC [10]: 16 µg/mL (≈ 45.8 µM)
- MIC ([11]; strain A-9537): 0.16 µg/mL (≈ 0.458 µM)
- MIC ([11]; strain A-9537, + 50% serum): 0.06 µg/mL
- MIC [12]: 4 µg/mL (≈ 11.4 µM)
- MIC [13]: 0.13 µg/mL (≈ 0.372 µM)
- MIC [14]: 0.004 µg/mL (≈ 0.0114 µM)
- MIC [15]: 0.004 µg/mL (≈ 0.0114 µM)
- MIC [16]: 1 µg/mL (≈ 2.86 µM)
- MIC [17]: 0.13 µg/mL (≈ 0.372 µM)

Compound: CC1(CCl)C(C(=O)OC2OC(=O)c3ccccc32)N2C(=O)CC2S1(=O)=O (centres unmarked) [BL-P2036]
- concentration at 0.5 h [18]: 6700 ng/mL

Compound: NCc1ccccc1CC(=O)N[C@@H]1C(=O)N2C(C(=O)O)=C(CSc3nnnn3CC(=O)O)CS[C@H]12 [Ceforanide]
- MIC [1, 21]: 32 µg/mL
- MIC [1, 22]: 63 µg/mL
- MIC [1, 23]: 32 µg/mL
- MIC [1, 24]: 32 µg/mL
- MIC ([1]; strain A22533, β-lactamase +): > 125 µg/mL
- MIC ([1]; strain A22534, β-lactamase +): > 125 µg/mL
- MIC ([1]; strain A22535, β-lactamase +): > 125 µg/mL
- MIC ([1]; strain A22693, β-lactamase +, read-out: MIC): 63 µg/mL
- MIC ([1]; strain A22694, β-lactamase +): 125 µg/mL
- MIC ([1]; strain A22695, β-lactamase +): > 125 µg/mL
- MIC ([1]; strain A22696, β-lactamase +): > 125 µg/mL
- MIC [1, 25]: 63 µg/mL
- MIC ([1]; strain A22792, β-lactamase +): > 125 µg/mL
- MIC [1, 26]: 32 µg/mL
- MIC [1, 27]: 32 µg/mL
- MIC ([1]; strain A22795, β-lactamase +, read-out: MIC): 63 µg/mL
- MIC ([1]; strain A22797, β-lactamase +, read-out: MIC): 63 µg/mL
- MIC [1, 28]: 32 µg/mL
- MIC [5, 29]: 125 µg/mL
- MIC ([5]; strain A22279, β-lactamase +): 125 µg/mL
- MIC ([6]; Bacteroides): 125 µg/mL
- MIC [6, 30]: 0.5 µg/mL
- MIC ([6]; Bacteroides, strain A20929, β-lactamase +, read-out: MIC): 63 µg/mL
- MIC ([6]; Bacteroides, strain A20931, β-lactamase +, read-out: MIC): 63 µg/mL
- MIC [6, 31]: 63 µg/mL
- MIC [6, 32]: 32 µg/mL
- MIC [6, 33]: 2 µg/mL
- MIC ([6]; Bacteroides, strain A21954, β-lactamase +, read-out: MIC): 63 µg/mL
- MIC ([6]; Bacteroides, strain A21959, β-lactamase +, read-out: MIC): 63 µg/mL

Compound: CC1(C)S[C@@H]2[C@H](NC(=O)[C@H](N)c3ccccc3)C(=O)N2[C@H]1C(=O)OCOC(=O)[C@@H]1N2C(=O)C[C@H]2S(=O)(=O)C1(C)C [Example 3]
- absorption ([19]; gastro-intestinal tract): excellently absorbed
- blood and tissue levels of antibiotic and β-lactamase inhibitor [19]: high blood and tissue levels
- hydrolysis after absorption [19]: hydrolyzed with simultaneous liberation of the active components

Compound: CC1(CCl)C(C(=O)O)N2C(=O)CC2S1(=O)=O (centres unmarked) [Sodium Salt of BL-P2013]
- hygroscopicity [20]: Non-hygroscopic
